The subject of test [1] is scid/scid mice. Put plainly: Effect of co-factors on disease induction in the scid/scid CD4+/CD25- transfer model. The test is classed as in vivo, mouse. The note with it: 20 μg s.c. on day one after cell transfer. How it is done:
Induction of chronic skin inflammation. Briefly, splenocytes were collected from 5-10 week old donor mice (Balb/c) and donor population was either enriched for CD4+ and depleted of CD25+ cells, or depleted of CD25+ cells only. The collected cell population was injected subcutaneously (s.c.) into C.B-17/Icr scid/scid mice, aged 4-8 weeks (usually 3×10^5 to 5×10^5 cells per mouse in 200-400 μL). A systemic (s.c., i.p. or i.v.) injection of an immuno-modulating agent was given 24 hours following cell transfer. Alternatively, these co-injections were given at the same time to one week after. The co-injection was, alternatively, repeated every other day or once a week for the entire course of the experiment.
After 24 hours all recipient mice were given a co-injection of 20 μg LPS (or 10 μg SEB) s.c. Disease causing T cells then proliferated and began to induce inflammation over a period of 4 weeks
The thickness of the skin on the ear was measured using a Dyer micrometer. The micrometer was first modified to better perform in the measurement of soft tissue. The contact pads are reduced to 4 mm, and the spring tension is reduced to <3 lbs.
Co-factor injections are important for their mitogenic properties. […]
The effect of different co-factors on disease induction was assessed. […]

Test [2] has as its system psoriatic scid/scid mice. Put plainly: Treatment of established chronic skin inflammation (psoriasis) in scid/scid mice after transfer of CD4+/CD25- T cells and LPS; ear thickness and histology. It is filed as in vivo, mouse. An excerpt: Mice. Female Balb/c mice (donor mice) were purchased from Jackson Labs (Bar Harbor, Me.) or similar source, and C.B-17/Icr scid/scid (recipient mice) were purchased from Taconic (Germantown, N.Y.) or Charles River. All mice were housed in a specific pathogen free environment and were used between 4-8 wk of age. Mice were housed 2-5 per microisolator. All scid/scid mice were handled with gloves under a class II hood, fed sterile food and water ad libitum, and maintained in sterilized microisolators that are changed twice weekly. Donor mice were housed in conventional cages that were changed weekly.
Induction of chronic skin inflammation. Briefly, splenocytes were collected from 5-10 week old donor mice (Balb/c) and donor population was either enriched for CD4+ and depleted of CD25+ cells, or depleted of CD25+ cells only. The collected cell population was injected subcutaneously (s.c.) into C.B-17/Icr scid/scid mice, aged 4-8 weeks (usually 3×10^5 to 5×10^5 cells per mouse in 200-400 μL). […]
Cell Selection: Balb/c mouse spleens were collected and homogenized by pressing through 100 μ cell strainer (Falcon) and suspended in cold PBS supplemented with 10% FBS. […] The resultant cell quantities were 5-8 million cells per spleen. […]
The thickness of the skin on the ear was measured using a Dyer micrometer. […]

For lipopolysaccharide [LPS], the incidence of disease in test [1] (5/5) stood at 100%. In test [1] (week 7, n=5 mice, +/- SEM, 30 μm+/−1.2 without co-factor, p=3.6×10^−3), the average ear thickness is 36.4 μm.
Take methylprednisone: the “skin thickness after treatment” value in test [2] (after 8 days of 40 mg/kg twice/day, p=2.01×10^−6) is given as 22.4 μm. Moreover, in test [2] (baseline before 40 mg/kg twice/day for 8 days), the “skin thickness before treatment” value stood at 33.7 μm.

(Values after US6593511B1, “Models of chronic and acute inflammatory diseases” (Bioseek, Inc., priority 2000, dated 2003).)
